In patent publication US7803930B2, “Antisense modulation of apolipoprotein B-expression” (Isis Pharmaceuticals, Inc., priority 2002, dated 2010):
In the oligonucleotide strings, read from the 5' end, every base follows the letter of its sugar. An asterisk marks phosphorothioate; unmarked linkages are phosphodiester. Other units and linkages are bracketed, terminal groups are in braces. A string of capitals states the bases alone. e = 2'-O-(2-methoxyethyl) (MOE); [5mC] = 5-methylcytosine; d = 2'-deoxy (DNA)

System: human apolipoprotein B mRNA
Test: Inhibition of human apolipoprotein B mRNA levels in HepG2 cells, quantitative real-time PCR
Assay type: cell-based
Conditions: for % INHIB (inhibition of human apolipoprotein B mRNA levels): HepG2 cells treated with 150 nM of compound, quantitative real-time PCR
How it was run: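 HepG2 cells at 80% confluency were transfected with antisense oligonucleotide using 3.75 μg/mL Lipofectin in Opti-MEM for 4-7 h and harvested 16-24 h after treatment. Apolipoprotein B mRNA was measured by real-time RT-PCR and normalized to GAPDH or RiboGreen total RNA. Percent inhibition came from untreated-control standard curves.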

[1] = HepG2 cells, human apolipoprotein B mRNA, oligonucleotides targeting genomic sequence SEQ ID NO 334, averages from two experiments
[2] = Table 1, HepG2 cells, 150 nM, averages from two experiments

| Substance | % INHIB (inhibition of human apolipoprotein B mRNA levels) (averages from two experiments) [%] | % INHIB [1] [%] | also measured |
| --- | --- | --- | --- |
| 301032 (e[5mC]*eT*eA*e[5mC]*eT*dG*d[5mC]*dA*dA*dG*dG*d[5mC]*dT*dG*dG*e[5mC]*eT*e[5mC]*eA*e[5mC]; antisense) [compound 301032] | 63 | – | – |
| 301097 (antisense eG*eG*eT*eA*eG*d[5mC]*d[5mC]*dA*dG*dA*dA*d[5mC]*dA*d[5mC]*d[5mC]*eA*eG*eT*eG*eT) [compound 301097] | – | 50 | – |
| 271010 (antisense eT*eG*eT*e[5mC]*eA*d[5mC]*dA*dA*d[5mC]*dT*dT*dA*dG*dG*dT*eG*eG*e[5mC]*e[5mC]*e[5mC]) [compound 271010] | 57 | – | – |
| 270993 (antisense eT*eT*eG*eA*eA*dG*d[5mC]*dG*dA*dT*d[5mC]*dA*d[5mC]*dA*d[5mC]*eT*eG*e[5mC]*e[5mC]*e[5mC]) [compound 270993] | 69 | – | – |
| 301219 (antisense eG*e[5mC]*e[5mC]*eA*eG*dA*dA*d[5mC]*dA*dT*dT*dT*dT*dA*dT*e[5mC]*eA*eA*eT*eG) [compound 301219] | – | – | % INHIB (Table 15, HepG2 cells, 150 nM, averages from two experiments): 35% |
| 271012 (antisense e[5mC]*e[5mC]*e[5mC]*eA*e[5mC]*dA*dG*dA*d[5mC]*dT*dT*dG*dA*dA*dG*eT*eG*eG*eA*eG) [compound 271012] | 55 | – | – |
| 270990 (antisense e[5mC]*e[5mC]*e[5mC]*eT*e[5mC]*dT*dT*dG*dA*dT*dG*dT*dT*d[5mC]*dA*eG*eG*eA*eT*eG) [compound 270990] | 42 | – | – |
| 301067 (eT*e[5mC]*eT*eG*eA*dT*d[5mC]*dA*d[5mC]*d[5mC]*dA*dT*dA*d[5mC]*dA*eT*eT*eA*e[5mC]*eA; antisense) [compound 301067] | – | 45 | – |
| 308606 (eT*eT*eG*eA*eA*dT*dG*dT*d[5mC]*dA*dT*dG*dG*dT*dA*eG*e[5mC]*e[5mC]*eT*e[5mC]; antisense) [compound 308606] | – | – | % INHIB 50 nm (Table 11 gene walk, HepG2 cells, 50 nM, averages from two experiments): 54%; % INHIB 150 nm (Table 11 gene walk, HepG2 cells, 150 nM, averages from two experiments): 97% |
| 271031 (e[5mC]*eA*eG*eT*eG*dT*dG*dA*dT*dG*dA*d[5mC]*dA*d[5mC]*dT*eT*eG*eA*eT*eT; antisense) [compound 271031] | 49 | – | – |
| 308630 (GCCTCAGTCTGCTTCGCGCC; 0-10-10 MOE gapmer, phosphorothioate, chemistry not fully specified) [compound 308630] | – | – | % INHIB 50 nm (Table 17 variable gap, HepG2 cells, 50 nM, averages from three experiments): 69%; % INHIB 150 nm (Table 17 variable gap, HepG2 cells, 150 nM, averages from three experiments): 89% |
| 301116 (antisense eG*eA*eT*eG*eG*dA*dT*dG*dG*dT*dG*dA*dG*dA*dA*eA*eT*eT*eA*e[5mC]) [compound 301116] | – | 33 | – |
| 301055 (eT*eG*eG*e[5mC]*eT*d[5mC]*dA*dT*dG*dT*d[5mC]*dT*dA*d[5mC]*d[5mC]*eA*eT*eA*eT*eT; antisense) [compound 301055] | – | 49 | – |
| 281622 (antisense eA*eG*e[5mC]*eA*e[5mC]*d[5mC]*dA*dG*dG*dA*dG*dA*d[5mC]*dT*dA*e[5mC]*eA*e[5mC]*eT*eT) [compound 281622] | 88 | – | – |
| 308622 (eG*e[5mC]*e[5mC]*eT*eT*d[5mC]*dT*dG*d[5mC]*dT*dT*dG*dA*dG*dT*eT*eA*e[5mC]*eA*eA; antisense) [compound 308622] | – | – | % INHIB 50 nm (Table 13 gene walk, HepG2 cells, 50 nM, averages from two experiments): 25%; % INHIB 150 nm (Table 13 gene walk, HepG2 cells, 150 nM, averages from two experiments): 87% |
| 301110 (antisense e[5mC]*eT*eG*eG*eA*dG*dA*dG*d[5mC]*dA*d[5mC]*d[5mC]*dT*dG*d[5mC]*eA*eA*eT*eA*eG) [compound 301110] | – | 35 | – |
| 301123 (eG*eA*eT*eG*eT*dA*dT*dG*dT*d[5mC]*dA*dT*dA*dT*dA*eA*eA*eA*eG*eA; antisense) [compound 301123] | – | 26 | – |
| 301019 (eG*eG*e[5mC]*eT*e[5mC]*d[5mC]*dT*d[5mC]*dA*dG*d[5mC]*dG*dG*d[5mC]*dA*eG*e[5mC]*eA*eA*e[5mC]; antisense) [compound 301019] | 70 | – | – |
| 301135 (eA*eA*eA*eT*eA*d[5mC]*dA*d[5mC]*dA*d[5mC]*d[5mC]*dT*dG*d[5mC]*dT*e[5mC]*eA*eT*eG*eT; antisense) [compound 301135] | – | 20 | – |
| 301153 (eA*eG*eT*e[5mC]*eA*dG*dA*dA*dA*dA*d[5mC]*dA*dA*d[5mC]*d[5mC]*eT*eA*eT*eT*e[5mC]; antisense) [compound 301153] | – | 11 | – |

| Substance | % INHIB (inhibition of human apolipoprotein B mRNA levels) (averages from two experiments) [%] | % INHIB [1] [%] | also measured |
| --- | --- | --- | --- |
| 301093 (antisense eT*eG*eG*eA*eT*dT*dT*dG*dG*dA*dT*dA*d[5mC]*dA*d[5mC]*eA*eA*eG*eT*eT) [compound 301093] | – | 42 | – |
| 147816 (antisense eT*e[5mC]*eA*eT*eA*d[5mC]*dG*dT*dT*dT*dA*dG*d[5mC]*d[5mC]*d[5mC]*eA*eA*eT*e[5mC]*eT) [compound 147816] | – | – | % INHIB [2]: 100%; Percent Inhibition 50 nM (Table 2, HepG2 cells, 50 nM): 25%; Percent Inhibition 150 nM (Table 2, HepG2 cells, 150 nM): 81%; Percent Inhibition 250 nM (Table 2, HepG2 cells, 250 nM): 65% |
| 270998 (antisense e[5mC]*eG*e[5mC]*eT*eG*dA*dT*d[5mC]*d[5mC]*d[5mC]*dT*d[5mC]*dG*d[5mC]*d[5mC]*eA*eT*eG*eT*eT) [compound 270998] | 1 | – | – |
| 281607 (antisense e[5mC]*e[5mC]*eA*eG*eT*dT*d[5mC]*dA*dG*d[5mC]*d[5mC]*dT*dG*d[5mC]*dA*eT*eG*eT*eT*eG) [compound 281607] | 84 | – | – |
| 147786 (antisense e[5mC]*eT*eT*eG*eA*dA*dT*d[5mC]*dA*dG*d[5mC]*dA*dG*dT*d[5mC]*e[5mC]*e[5mC]*eA*eG*eG) [compound 147786] | – | – | % INHIB [2]: 34% |
| 301205 (antisense e[5mC]*eA*eA*eT*eT*d[5mC]*dA*dA*dT*dA*dA*dA*dA*dG*d[5mC]*eT*e[5mC]*e[5mC]*eA*eT) [compound 301205] | – | 31 | – |
| 301216 (antisense e[5mC]*eT*eG*eG*eA*dG*dA*dG*dG*dA*d[5mC]*dT*dA*dA*dA*e[5mC]*eA*eG*eA*eG) [compound 301216] | – | 49 | – |
| 281611 (antisense e[5mC]*eT*eG*eT*e[5mC]*d[5mC]*dT*d[5mC]*dT*d[5mC]*dT*d[5mC]*dT*dG*dG*eA*eG*e[5mC]*eT*e[5mC]) [compound 281611] | 93 | – | – |
| 301212 (antisense eT*eT*eG*eA*eT*dG*dT*dA*dT*d[5mC]*dT*d[5mC]*dA*dT*d[5mC]*eT*eA*eG*e[5mC]*eA) [compound 301212] | – | 41 | – |
| 301184 (antisense eT*eA*eT*eT*eG*dT*dG*dT*dG*d[5mC]*dT*dG*dG*dG*d[5mC]*eA*e[5mC]*eT*eG*e[5mC]) [compound 301184] | – | 52 | – |
| 301124 (eT*eT*eT*e[5mC]*e[5mC]*dA*dA*dT*dG*dA*d[5mC]*d[5mC]*dT*dG*d[5mC]*eA*eT*eT*eG*eA; antisense) [compound 301124] | – | 48 | – |
| 301176 (antisense eT*e[5mC]*eT*eG*eG*dA*dG*dG*d[5mC]*dT*d[5mC]*dA*dG*dA*dA*eA*e[5mC]*eA*eT*eG) [compound 301176] | – | 57 | – |
| 281593 (eT*eA*e[5mC]*eT*eG*dA*d[5mC]*dA*dG*dG*dA*d[5mC]*dT*dG*dG*e[5mC]*eT*eG*e[5mC]*eT; antisense) [compound 281593] | 93 | – | – |
| 301139 (eT*e[5mC]*eA*eA*eG*dA*dA*dT*dA*dA*dG*d[5mC]*dT*d[5mC]*d[5mC]*eA*eG*eA*eT*e[5mC]; antisense) [compound 301139] | – | 41 | – |
| 271001 (antisense e[5mC]*e[5mC]*e[5mC]*eA*eT*dG*dG*dT*dA*dG*dA*dA*dT*dT*dT*eG*eG*eA*e[5mC]*eA) [compound 271001] | 53 | – | – |
| 271047 (e[5mC]*e[5mC]*eT*e[5mC]*e[5mC]*d[5mC]*dT*d[5mC]*dA*dT*dG*dA*dA*d[5mC]*dA*eT*eA*eG*eT*eG; antisense) [compound 271047] | – | – | % INHIB (Table 12, HepG2 cells, 150 nM, averages from two experiments): 32% |
| 281609 (antisense e[5mC]*eG*eT*eT*eG*dG*dA*dG*dT*dA*dA*dG*d[5mC]*dG*d[5mC]*e[5mC]*eT*eG*eA*eG) [compound 281609] | 70 | – | – |
| 301083 (antisense eA*eG*eA*eA*eG*dA*dT*dG*d[5mC]*dA*dA*d[5mC]*d[5mC]*dA*d[5mC]*eA*eT*eG*eT*eA) [compound 301083] | – | 29 | – |
| 281624 (antisense eG*eG*eT*eT*e[5mC]*dT*dA*dG*d[5mC]*d[5mC]*dG*dT*dA*dG*dT*eT*eT*e[5mC]*e[5mC]*e[5mC]) [compound 281624] | 75 | – | – |
| 308652 (antisense AGGTTACCAGCCACATGCAG; 7-10-3 2'-MOE gapmer, phosphorothioate, chemistry not fully specified) [compound 308652] | – | – | % INHIB 50 nm (HepG2 cells, 50 nm oligonucleotide, variable deoxy gap position): 73%; % INHIB 150 nm (HepG2 cells, 150 nm oligonucleotide, variable deoxy gap position): 95% |
